The results in this text go back to patent publication US20060134239A1, “Agents against microorganisms containing patchouli oil, patchouli alcohol and/or the derivatives thereof” (priority 2003, published 2006).

Holding throughout (assay type): cell-based
Assay [1] deals with Aspergillus niger (DSM 1988). The assay is described as follows: Sporulation of Aspergillus niger on a filter surface after 2 applications (Example 4). The following applies: for Sporulation [%]: 3 days at 25° C. As to the method:
Effect of Patchouli Oil on the Sporulation of Aspergillus niger on a Filter Surface after 2 Applications
Filter papers (2×2 cm) were disinfected and treated twice with a 1 hour interval with 50 μl of active-component solutions (in ethanol) differing in concentration. The test specimens were then dried. The test specimens were then placed on wort agar plates and the surface of the wort agar plates was contaminated with 100 μl of a germ suspension (10^3 CFU/ml) of Aspergillus niger (DSM 1988). The plates were incubated for 3 days at 25° C. Sporulation was visually evaluated and the sporulation rate in [%] was determined. […] Sporulation was inhibited by increasing concentrations of eugenol and was 95% suppressed at 90 μm.

Assay [2] relates to Aspergillus niger, DSM 1988. The assay is described as follows: Sporulation of Aspergillus niger on the surface of an acetate silicone jointing compound (Example 3). The following applies: for Sporulation [%]: control series. As to the method: Effect on Patchouli Oil on the Sporulation of Aspergillus niger on the Surface of an Acetate Jointing Compound
Commercially available, but preservative-free, one-component silicone jointing compounds curing at room temperature (acetate system, cured 2.2×2.2×0.3 cm pieces of film) were disinfected with 70% EtOH (ethanol) and placed for 24 h in active component solutions with various concentrations. The test specimens were then re-washed twice with EtOH, rinsed with distilled water (sterile) and dried for 24 h. The test specimens were weighed before and after this treatment and the quantity of active component in the test specimens was thus determined together with the concentration of the active component solution. The test specimens were then placed on wort agar plates and thinly coated with agar in which fungal spores had been incorporated (10^5 CFU/ml Aspergillus niger, DSM 1988). The plates were incubated for 3 days at 25° C. Sporulation was visually evaluated from the test specimens and the sporulation rate in [%] was determined.

The subject of assay [3] is Aspergillus niger (DSM 1988). The assay can be described thus: Sporulation of Aspergillus niger on wort agar plates with active component in the agar (Example 1). The following applies: control series. On the procedure: Effect of Patchouli Oil on the Sporulation of Aspergillus niger
Contamination of the surface of wort agar plates with 100 μl of a germ suspension (10^3 CFU/ml) of Aspergillus niger (DSM 1988). Various quantities of active component (dissolved in ethanol, for final concentrations see Table 1) were added to the agar plates beforehand. The plates were incubated for 3 days at 25° C. Sporulation was visually evaluated and the sporulation rate in [%] was determined.
Active component: patchouli oil obtained by steam distillation (mixture of patchouli oil from Kaders, Sensient, Polarome and Nitsche)

Assay [4] has as its system Aspergillus niger (DSM 1988). The assay can be described thus: Sporulation of Aspergillus niger on wort agar plates, patchouli alcohol (Example 2). On the procedure:
Effect of Patchouli Alcohol on the Sporulation of Aspergillus niger
Contamination of the surface of wort agar plates with 100 μl of a germ suspension (10^3 CFU/ml) of Aspergillus niger (DSM 1988). Various quantities of active component (solutions in ethanol, for final concentrations see Table 2) were added to the agar plates beforehand. The plates were incubated for 5 days at 25° C. Sporulation was visually evaluated and the sporulation rate in [%] was determined. […] Sporulation was inhibited with increasing concentrations and was 95% suppressed at 450 μm.

As for `C=CCc1ccc(O)c(OC)c1` [eugenol], the “Suppression of sporulation” value in assay [1] (at 90 μm) is 95%; in assay [2] (at 9 μm/g jointing compound) it was “completely suppressed”.
In the case of `CC(C)=CCCC(C)=CCCC(C)=CCO` [farnesol], the “Inhibition of sporulation compared with identical concentrations of patchouli oil” value in assay [1] (second, parallel test series on filter paper) is listed as “inhibited, but to a lesser extent”; in assay [2] (parallel test series on jointing compound) it was “inhibited, but to a far lesser extent”. For the same molecule, the “Sporulation [%]” value in assay [1] (solution concentration 0.5 μm, filter paper treated twice with 50 μl) was found to be 100%; in assay [1] (solution concentration 5 μm, filter paper treated twice), 100%; in assay [1] (solution concentration 25 μm, filter paper treated twice), 100%; in assay [1] (solution concentration 35 μm, filter paper treated twice), 60%; in assay [1] (solution concentration 50 μm, filter paper treated twice) it was 80%; in assay [1] (solution concentration 70 μm, filter paper treated twice), 50%. In addition, the “Sporulation [%]” value in assay [1] (solution concentration 90 μm, filter paper treated twice) is on record as 40%; in assay [2] (0.4 μm/g jointing compound), 100%; in assay [2] (1.1 μm/g jointing compound), 100%; in assay [2] (17 μm/g jointing compound), 30%; in assay [3] (concentration 25 μm in wort agar), 90%; in assay [3] (concentration 62.5 μm in wort agar), 75%. Also, the “Sporulation [%]” value in assay [3] (concentration 125 μm in wort agar) is recorded as 50%; in assay [3] (concentration 250 μm in wort agar) it was 10%; in assay [3] (concentration 500 μm in wort agar), 0%.
Regarding `C[C@H]1CC[C@@]2(O)C(C)(C)[C@@H]3CC[C@@]2(C)[C@H]1C3` [patchouli alcohol, Patchouli alcohol], in assay [4] (all concentrations used (up to 450 μm)), the “Inhibition of growth of the test strain” value is listed as “None of the active component concentrations used inhibited the growth”. Also, in assay [4] (at 450 μm, 5 days at 25° C.), the “Suppression of sporulation” value is reported as 95%. For the same molecule, the “Sporulation [%]” value in assay [4] (concentration 225 μm in wort agar, 5 days at 25° C.) is reported as 95%; in assay [4] (concentration 450 μm in wort agar, 5 days at 25° C.), 5%.
